Test results published in patent publication US20230142547A1, “COMPOUNDS FOR TREATING OR PREVENTING A CORONAVIRIDAE INFECTION & METHODS AND USES FOR ASSESSING THE OCCURRENCE OF A CORONAVIRIDAE INFECTION” (ABIVAX, priority 2020, published 2023).
Where two headings read alike, the source gives them in different places.

Legend:
SARS-CoV2 [1] = assay: ABX464 in combination with Remdesivir: SARS-CoV2 viral RNA in HAE by RT-qPCR; format: cell-based; details: FIG. 3B
SARS-CoV2 [2] = assay: Inhibition of SARS-CoV2 replication in MucilAir reconstituted human airway epithelium, viral genome by RT-qPCR; format: cell-based; details: for effect on SARS-CoV2 replication (in words): daily treatment, increasing concentrations
[3] = system: human reconstituted airway epithelial model of bronchial origin; format: cell-based; details: infected HAE, 48h post-infection
SARS-CoV-2 = format: cell-based; details: 48 hours post-infection, FIG. 2
[4] = Tissue distribution of radioactivity in rat after single oral [14C]-ABX464 (whole-body autoradiography, liquid scintillation counting); format: in vivo; details: for concentration of radioactivity, Aortic wall / concentration of radioactivity, Lung / concentration of radioactivity, Myocardium / concentration of radioactivity, Nasal mucosa / concentration of radioactivity, Oesophageal wall / concentration of radioactivity, Tongue / concentration of radioactivity, Blood / concentration of radioactivity, Plasma: male albino rats, single oral 20 mg/kg; for concentration of radioactivity, Blood / concentration of radioactivity, Plasma: liquid scintillation counting
Description: (§1) This study was conducted in order to determine the tissue distribution and rates and routes of excretion of radioactivity in the rat following a single oral administration of [^14C]-ABX464. Analysis was performed using liquid scintillation counting (plasma and excreta) and quantitative whole-body autoradiography.
(§2) All animals received a single oral administration of [^14C]-ABX464 by oral gavage, at a nominal dose level of 20 mg/kg body weight and a dose volume of approximately 5 mL/kg. The target radioactive dose administered was ca 8 MBq/kg body weight.
Radioactivity in Blood and Plasma Whilst under terminal anaesthesia, but before freezing, up to 2 mL of blood was obtained from all animals by cardiac puncture and transferred to tubes pre-coated with K2-EDTA. The residual sample was centrifuged in order to obtain plasma. The radioactivity concentration was measured in blood and plasma by liquid scintillation counting.
For each animal, the legs, tail and whiskers were trimmed off and the frozen carcass set in a block of aqueous 2% (w/v) carboxymethylcellulose. The block was mounted onto the stage of a Leica CM3600 cryomicrotome maintained at ca −20° C. (Leica Microsystems (UK) Ltd) and sagittal sections (nominal thickness 30 μm) were obtained through the carcass to include the following tissues: exorbital lachrymal gland, intra-orbital lachrymal gland, Harderian gland, adrenal gland, thyroid, brain and spinal cord. The sections, mounted on Filmolux 610 Tape (Neschen UK), were freeze-dried in a GVD03 bench-top freeze-drier (Girovac Ltd) and placed in contact with FUJI imaging plates (type BAS-MS, Raytek Scientific Ltd). [^14C]-Blood standards of appropriate activity (also sectioned at a nominal thickness of 30 μm) were placed in contact with all imaging plates.
After exposure in a copper-lined, lead exposure box for 7 days, the imaging plates were processed using a FUJI FLA-5000 radiography system (Raytek Scientific Ltd). Electronic images were analysed using a PC-based image analysis package (Seescan 2 software, LabLogic Ltd). The carbon-14 standards included with each autoradiogram were used to construct calibration lines over a range of radioactivity concentrations.
Wherever possible, the maximum area within a single autoradiogram was defined for each tissue for measurement.
(§3) A suitable scintillation counter was used. Radioassays were performed at least in duplicate. Efficiency correlation curves were prepared and routinely checked by the use of [14-C]toluene and Ultima Gold™ quenched standards (PerkinElmer LAS (UK) Ltd).
Concentration of radioactivity in sample=C (dpm/g)
Specific radioactivity of test substance=S (MBq/mg)
Concentration of radioactivity in sample=(C/60000)/S (μg equiv/g)

[5] = Rates and routes of excretion of radioactivity in rat after single oral [14C]-ABX464; format: in vivo
Description: as §1, §2, §3

[6] = Severe acute respiratory syndrome coronavirus 2, RTqPCR, mean of duplicates, read-out: % inhibition of viral infection, MEAN
[7] = Severe acute respiratory syndrome coronavirus 2, RTqPCR, replicate N1, read-out: % inhibition of viral infection, N1
[8] = Severe acute respiratory syndrome coronavirus 2, RTqPCR, replicate N2, read-out: % inhibition of viral infection, N2

Compound: CCC(CC)COC(=O)[C@H](C)N[P@](=O)(OC[C@H]1O[C@@](C#N)(c2ccc3c(N)ncnn23)[C@H](O)[C@@H]1O)Oc1ccccc1 [Remdesivir, reference compound]
- reduction of viral RNA (SARS-CoV2 [1]; REM alone (5 μM), values from another experiment): 4 log
- inhibition at 5 µM (SARS-CoV2 [2]; Severe acute respiratory syndrome coronavirus 2, read-out: % inhibition of viral infection, MEAN): 100%
- inhibition at 5 µM (SARS-CoV2 [2]; Severe acute respiratory syndrome coronavirus 2, read-out: % inhibition of viral infection, N1): 99.9%
- inhibition at 5 µM (SARS-CoV2 [2]; Severe acute respiratory syndrome coronavirus 2, read-out: % inhibition of viral infection, N2): 100%

Compound: N#Cc1ccc(Nc2ccc3ccccc3n2)nc1 [ABX300, reference compound]
- % inhibition of viral replication (SARS-CoV2 [2]; all tested concentrations (10 μM, 1 μM and 0.1 μM)): 0%
- effect on SARS-CoV2 replication (in words) (SARS-CoV2 [2]): fails to show a marked effect on viral replication
- epithelium integrity measured by TEER (in words) [3]: reduction in epithelium integrity
- TCID50 (in words) (SARS-CoV-2): very modest effect on the TCID50

Compound: FC(F)(F)Oc1ccc(Nc2ccc3cccc(Cl)c3n2)cc1 [ABX464, 8-Chloro-N-(4-(trifluoromethoxy)phenyl)quinolin-2-amine]
- reduction of viral RNA (SARS-CoV2 [1]; 1 μM of ABX464 alone, HAE, RT-qPCR): 1.5 log
- concentration of radioactivity, Aortic wall ([4]; 1 hour): 0.337 μg equivalents per gram
- concentration of radioactivity, Lung ([4]; 1 hour): 1.19 μg equivalents per gram
- concentration of radioactivity, Myocardium ([4]; 1 hour): 1.28 μg equivalents per gram
- concentration of radioactivity, Nasal mucosa ([4]; 1 hour): 0.252 μg equivalents per gram
- concentration of radioactivity, Oesophageal wall ([4]; 1 hour): 1.72 μg equivalents per gram
- concentration of radioactivity, Tongue ([4]; 1 hour): 0.495 μg equivalents per gram
- concentration of radioactivity, Blood ([4]; 1 hour): 0.398 μg equivalents per gram
- concentration of radioactivity, Plasma ([4]; 1 hour): 0.461 μg equivalents per gram
- concentration of radioactivity, Aortic wall ([4]; 4 hours): 1.59 μg equivalents per gram
- concentration of radioactivity, Lung ([4]; 4 hours): 1.89 μg equivalents per gram
- concentration of radioactivity, Myocardium ([4]; 4 hours): 1.45 μg equivalents per gram
- concentration of radioactivity, Nasal mucosa ([4]; 4 hours): 0.708 μg equivalents per gram
- concentration of radioactivity, Oesophageal wall ([4]; 4 hours): 2.72 μg equivalents per gram
- concentration of radioactivity, Tongue ([4]; 4 hours): 1.92 μg equivalents per gram
- concentration of radioactivity, Blood ([4]; 4 hours): 0.978 μg equivalents per gram
- concentration of radioactivity, Plasma ([4]; 4 hours): 1.25 μg equivalents per gram
- concentration of radioactivity, Aortic wall ([4]; 8 hours): 1.74 μg equivalents per gram
- concentration of radioactivity, Lung ([4]; 8 hours): 1.45 μg equivalents per gram
- concentration of radioactivity, Myocardium ([4]; 8 hours): 0.677 μg equivalents per gram
- concentration of radioactivity, Nasal mucosa ([4]; 8 hours): 0.585 μg equivalents per gram
- concentration of radioactivity, Oesophageal wall ([4]; 8 hours): 0.795 μg equivalents per gram
- concentration of radioactivity, Tongue ([4]; 8 hours): 0.689 μg equivalents per gram
- concentration of radioactivity, Blood ([4]; 8 hours): 0.807 μg equivalents per gram
- concentration of radioactivity, Plasma ([4]; 8 hours): 1.18 μg equivalents per gram
- concentration of radioactivity, Aortic wall ([4]; 24 hours): 0.129 μg equivalents per gram
- concentration of radioactivity, Lung ([4]; 24 hours): 0.457 μg equivalents per gram
- concentration of radioactivity, Myocardium ([4]; 24 hours): 0.143 μg equivalents per gram
- concentration of radioactivity, Nasal mucosa ([4]; 24 hours): 0.084 μg equivalents per gram
- concentration of radioactivity, Oesophageal wall ([4]; 24 hours): 0.265 μg equivalents per gram
- concentration of radioactivity, Tongue ([4]; 24 hours): 0.122 μg equivalents per gram
- concentration of radioactivity, Blood ([4]; 24 hours): 0.229 μg equivalents per gram
- concentration of radioactivity, Plasma ([4]; 24 hours): 0.203 μg equivalents per gram
- increase of affinity of related radioactivity to bind to the cellular partition of blood ([4]; over the study duration, rat, oral 20 mg/kg): 10 fold
- binding of related material to melanin ([4]; rat, oral 20 mg/kg): no evidence for the binding
- radioactivity in the central nervous system / blood-brain barrier ([4]; rat, oral 20 mg/kg): drug related material crossed the blood-brain barrier, but was subsequently eliminated
- systemic and tissue bioavailability by the oral route (in words) ([4]; rat, oral 20 mg/kg): excellent systemic and tissue bioavailability
- inhibition at 0.1 µM (SARS-CoV2 [2]; [6]): 32.5%
- inhibition at 0.1 µM (SARS-CoV2 [2]; [7]): 26.4%
- inhibition at 0.1 µM (SARS-CoV2 [2]; [8]): 38.5%
- inhibition at 1 µM (SARS-CoV2 [2]; [6]): 93.2%
- inhibition at 1 µM (SARS-CoV2 [2]; [7]): 88.8%
- inhibition at 1 µM (SARS-CoV2 [2]; [8]): 97.7%
- inhibition at 5 µM (SARS-CoV2 [2]; Severe acute respiratory syndrome coronavirus 2, 5 μM, RTqPCR, mean of duplicates, read-out: % inhibition of viral infection, MEAN): 95.5%
- inhibition at 5 µM (SARS-CoV2 [2]; Severe acute respiratory syndrome coronavirus 2, 5 μM, RTqPCR, replicate N1, read-out: % inhibition of viral infection, N1): 99.4%
- inhibition at 5 µM (SARS-CoV2 [2]; Severe acute respiratory syndrome coronavirus 2, 5 μM, RTqPCR, replicate N2, read-out: % inhibition of viral infection, N2): 91.7%
- effect on SARS-CoV2 replication (in words) (SARS-CoV2 [2]): dose-dependent inhibition of SARS-CoV2 replication
- epithelium integrity measured by TEER (in words) [3]: protective effect on the integrity of bronchial epithelium
- TCID50 (in words) (SARS-CoV-2): dose-dependent decrease of the TCID50
- radioactivity remaining in carcasses ([5]; final sampling time of 168 hours, excretion balance phase): less than 0.5 % of the administered dose
- elimination of radioactivity via faeces ([5]; rat, oral 20 mg/kg): 88%
- radioactivity excreted via the renal system ([5]; rat, oral 20 mg/kg): less than 5%
- total mean recovery of radioactivity ([5]; rat, oral 20 mg/kg): 93%±1.8
- orally administered dose absorbed ([5]; rat, oral 20 mg/kg, inferred from excretion): at least 5%

Compound: O=C(O)[C@H]1O[C@@H](N(c2ccc(OC(F)(F)F)cc2)c2ccc3cccc(Cl)c3n2)[C@H](O)[C@@H](O)[C@@H]1O [ABX464-N-Gluc]
- inhibition at 0.1 µM (SARS-CoV2 [2]; [6]): 0%
- inhibition at 0.1 µM (SARS-CoV2 [2]; [7]): 0%
- inhibition at 0.1 µM (SARS-CoV2 [2]; [8]): 0%
- inhibition at 1 µM (SARS-CoV2 [2]; [6]): 29%
- inhibition at 1 µM (SARS-CoV2 [2]; [7]): 20%
- inhibition at 1 µM (SARS-CoV2 [2]; [8]): 38%
- inhibition at 10 µM (SARS-CoV2 [2]; [6]): 88%
- inhibition at 10 µM (SARS-CoV2 [2]; [7]): 99.9%
- inhibition at 10 µM (SARS-CoV2 [2]; [8]): 76%
- effect on SARS-CoV2 replication (in words) (SARS-CoV2 [2]): dose-dependent effect
- TCID50 (in words) (SARS-CoV-2): a decrease is also observed
